The values that follow come from US12521393B2, “Cytotoxicity targeting chimeras for CCR2-expressing cells” (GLAXOSMITHKLINE INTELLECTUAL PROPERTY DEVELOPMENT LIMITED, priority 2021, dated 2026).

In general, IC50 refers to the concentration at which inhibition is half-maximal. Low values mean inhibition by little substance, high ones a need for much substance.

Experiment [1] concerns endogenous target monocytes in human PBMC. Put plainly: PBMC ex vivo monocyte depletion flow cytometry assay (Example 200). The conditions noted are these: with anti-cotinine antibody (SEQ ID NO: 11/12), 18-24 hours, EC50 in molar, read-out: Ex Vivo Depletion Assay pEC50 (converted). The format is cell-based. The gist of the method: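 Monocyte depletion is reported as pEC50, averaged or given individually across runs, and read by flow cytometry staining CD45, CD14 and CD4 with a viability dye. Compounds, diluted four-fold over 11 points from 1 mM DMSO stocks, were combined with 30 μg/mL Fc-enhanced anti-cotinine antibody and human PBMC, then incubated 18-24 h at 37° C.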
For orientation: Flow cytometry measures light scatter and fluorescence of single cells or particles in a stream.

Experiment [2] has as its target human alpha1 nicotinic acetylcholine (nACh) receptor (Homo sapiens, UniProt P02708). Put plainly: Nicotinic acetylcholine receptor antagonism assay, IONFlux automated patch clamp (Example 203). The format is cell-based. The conditions noted are these: for IC50: antagonism of ACh-stimulated human alpha1 nAChR current, patch clamp; for Emax at 10 µM: maximum percentage antagonism at maximum concentration tested 10 μM, read-out: Maximum Response. The gist of the method: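 Cells expressing human α1 nAChR were incubated with a compound dose response (top 10 μM or 100 μM), then stimulated with ACh (10 mM), and peak current was read by automated patch clamp. % inhibition was taken against ACh-alone control, corrected for vehicle and run-down, and fit non-linearly for IC50; runs were averaged.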

The target in experiment [3] is anti-cotinine antibody (SEQ ID NO: 11/12, rabbit variable region with human IgG1 Fc DE mutation). The experiment is described as follows: SPR binding of anti-cotinine antibody to ARM compounds, Biacore T200, 37° C. (Example 202). The conditions noted are these: SPR Biacore T200, 37° C., pH 7.4, antibody SEQ ID NO: 11/12 captured on protein A; Kd in molar. The gist of the method: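 Run at 37 °C in 10 mM HEPES pH 7.4, 150 mM NaCl, 0.005% P20, 1% DMSO, with compounds titrated from 200 nM (five 3-fold steps) over protein A–captured antibody. A 1:1 kinetic model on double-referenced data gave rate constants, Kd as koff/kon and residence time 1/koff; results as pKd, run-averaged.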
(SPR reads the build-up and loss of mass on a sensor chip optically.)

Molecules are shown by their SMILES. Where only a bound is given, the exact number is not on record here.

Chain of human alpha1 nicotinic acetylcholine (nACh) receptor (P02708 21-457): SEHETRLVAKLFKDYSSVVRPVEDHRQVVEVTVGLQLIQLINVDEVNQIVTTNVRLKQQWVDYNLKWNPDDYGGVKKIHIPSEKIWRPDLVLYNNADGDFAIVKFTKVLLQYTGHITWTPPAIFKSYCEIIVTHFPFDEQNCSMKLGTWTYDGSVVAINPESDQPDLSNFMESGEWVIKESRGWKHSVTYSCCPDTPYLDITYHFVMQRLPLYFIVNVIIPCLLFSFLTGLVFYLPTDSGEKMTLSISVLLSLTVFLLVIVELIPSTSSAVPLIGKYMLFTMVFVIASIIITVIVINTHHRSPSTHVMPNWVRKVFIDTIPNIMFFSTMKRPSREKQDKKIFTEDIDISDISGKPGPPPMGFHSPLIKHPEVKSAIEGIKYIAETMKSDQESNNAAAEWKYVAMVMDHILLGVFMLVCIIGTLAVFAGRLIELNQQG
Chain of human alpha1 nicotinic acetylcholine (nACh) receptor (P11230 24-501 partner): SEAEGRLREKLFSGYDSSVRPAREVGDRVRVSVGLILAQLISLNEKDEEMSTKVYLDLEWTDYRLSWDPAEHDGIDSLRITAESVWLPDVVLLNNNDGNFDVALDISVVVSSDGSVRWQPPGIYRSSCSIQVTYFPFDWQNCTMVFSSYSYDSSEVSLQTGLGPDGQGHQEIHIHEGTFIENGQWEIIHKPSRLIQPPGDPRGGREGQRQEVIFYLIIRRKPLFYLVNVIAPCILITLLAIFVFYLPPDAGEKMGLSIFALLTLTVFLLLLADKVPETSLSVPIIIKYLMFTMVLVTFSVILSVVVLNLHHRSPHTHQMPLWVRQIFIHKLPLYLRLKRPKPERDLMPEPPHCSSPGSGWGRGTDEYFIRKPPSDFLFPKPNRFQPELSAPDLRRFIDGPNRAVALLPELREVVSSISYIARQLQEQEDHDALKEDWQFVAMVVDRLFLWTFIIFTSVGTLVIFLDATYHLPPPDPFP
Chain of human alpha1 nicotinic acetylcholine (nACh) receptor (Q07001 22-517 partner): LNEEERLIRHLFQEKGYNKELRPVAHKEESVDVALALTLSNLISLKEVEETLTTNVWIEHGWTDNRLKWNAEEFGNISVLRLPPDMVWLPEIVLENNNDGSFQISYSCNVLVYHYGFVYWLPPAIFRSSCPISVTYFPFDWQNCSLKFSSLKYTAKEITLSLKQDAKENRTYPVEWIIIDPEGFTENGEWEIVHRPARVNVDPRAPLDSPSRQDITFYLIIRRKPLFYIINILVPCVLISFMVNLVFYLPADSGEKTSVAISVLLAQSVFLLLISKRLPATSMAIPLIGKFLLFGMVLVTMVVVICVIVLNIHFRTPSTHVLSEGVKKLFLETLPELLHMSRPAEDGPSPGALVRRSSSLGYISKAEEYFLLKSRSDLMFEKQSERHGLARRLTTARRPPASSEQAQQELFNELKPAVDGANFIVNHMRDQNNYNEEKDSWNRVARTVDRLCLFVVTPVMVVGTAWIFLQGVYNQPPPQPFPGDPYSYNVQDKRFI

As for `CC(C)N(C)[C@@H]1CC[C@H](N2CC[C@H](Nc3ncnc4ccc(C(F)(F)F)cc34)C2=O)[C@H](NC(=O)COCCOCCNC(=O)CCOCCOCCNC(=O)[C@H]2CC(=O)N(C)[C@@H]2c2cccnc2)C1` [Example 77, (2S,3S)-N-(1-(((1R,2S,5R)-5-(Isopropyl(methyl)amino)-2-((S)-2-oxo-3-((6-(trifluoromethyl)quinazolin-4-yl)amino)pyrrolidin-1-yl)cyclohexyl)amino)-1,10-dioxo-3,6,13,16-tetraoxa-9-azaoctadecan-18-yl)-1-methyl-5-oxo-2-(pyridin-3-yl)pyrrolidine-3-carboxamide], the EC50 in experiment [1] is 6.31 nM. Moreover, in experiment [2], the half-inhibitory concentration (IC50) is no less than 10000 nM and the Emax at 10 µM was 19.6%. The “pKd of Antibody for ARM Compound of Formula (I)” value (“pKd of Antibody” for short) in experiment [3] worked out at 9.152.

With `CC(C)N(C)[C@@H]1CC[C@H](N2CC[C@H](Nc3ncnc4ccc(C(F)(F)F)cc34)C2=O)[C@H](NC(=O)[C@H]2CC[C@@H](C3CCN(C(=O)CCOCCOCCNC(=O)[C@H]4CC(=O)N(C)[C@@H]4c4cccnc4)CC3)CC2)C1` [Example 72, (2S,3S)-N-(2-(2-(3-(4-((1S,4s)-4-(((1R,2S,5R)-5-(isopropyl(methyl)amino)-2-((S)-2-oxo-3-((6-(trifluoromethyl)quinazolin-4-yl)amino)pyrrolidin-1-yl)cyclohexyl)carbamoyl)cyclohexyl)piperidin-1-yl)-3-oxopropoxy)ethoxy)ethyl)-1-methyl-5-oxo-2-(pyridin-3-yl)pyrrolidine-3-carboxamide], in experiment [1], the EC50 was 7.94 nM. In experiment [2], the IC50 is no less than 10000 nM and the Emax at 10 µM is 32.7%. Besides, the “pKd of Antibody” value in experiment [3] is listed as 9.8865.

With `CC(C)N(C)[C@@H]1CC[C@H](N2CC[C@H](Nc3ncnc4ccc(C(F)(F)F)cc34)C2=O)[C@H](NC(=O)[C@H]2CC[C@H](C3CCN(C(=O)CCOCCOCCNC(=O)[C@H]4CC(=O)N(C)[C@@H]4c4cccnc4)CC3)CC2)C1` [Example 73, (2S,3S)-N-(2-(2-(3-(4-((1R,4r)-4-(((1R,2S,5R)-5-(Isopropyl(methyl)amino)-2-((S)-2-oxo-3-((6-(trifluoromethyl)quinazolin-4-yl)amino)pyrrolidin-1-yl)cyclohexyl)carbamoyl)cyclohexyl)piperidin-1-yl)-3-oxopropoxy)ethoxy)ethyl)-1-methyl-5-oxo-2-(pyridin-3-yl)pyrrolidine-3-carboxamide], the EC50 in experiment [1] was 100000 nM. Moreover, in experiment [2], the half-inhibitory concentration (IC50) was no less than 10000 nM and the Emax at 10 µM is 4.1%. In experiment [3], the “pKd of Antibody” value is reported as 9.8185.

`CC(C)N(C)[C@@H]1CC[C@H](N2CC[C@H](Nc3ncnc4ccc(C(F)(F)F)cc34)C2=O)[C@H](NC(=O)COCCNC(=O)COCCOCCNC(=O)CCNC(=O)[C@H]2CC(=O)N(C)[C@@H]2c2cccnc2)C1` [Example 143, (2S,3S)-N-(1-(((1R,2S,5R)-5-(Isopropyl(methyl)amino)-2-((S)-2-oxo-3-((6-(trifluoromethyl)quinazolin-4-yl)amino)pyrrolidin-1-yl)cyclohexyl)amino)-1,7,16-trioxo-3,9,12-trioxa-6,15-diazaoctadecan-18-yl)-1-methyl-5-oxo-2-(pyridin-3-yl)pyrrolidine-3-carboxamide]: the EC50 in experiment [1] was 2.51 nM. Also, the “pKd of Antibody” value in experiment [3] was 9.275.
